Data published in patent US9393221B2, “Methods and compounds for reducing intracellular lipid storage” (THE GENERAL HOSPITAL CORPORATION, priority 2011, dated 2016).
Where a name gives a salt, the structure may show the parent alone.

Tested on: ATGL-KO iPSCs
Assay: High throughput iPSC chemical screening, Oil Red O (ORO) lipid accumulation; for Z-score: test concentration or dose not given here
Format: cell-based, mouse
Conditions: not given

Compound | Z-score
CCN(CC)CCCC(C)Nc1ccnc2cc(Cl)ccc12 (stereo not drawn) [Chloroquine diphosphate] | 0.8301

Same assay, conditions: glycolytic switch compounds

Compound | Rank in normalized ORO score from screen
O=c1[nH]c2ccccc2n1C1CCN(CCCC(c2ccc(F)cc2)c2ccc(F)cc2)CC1 [Pimozide] | 330
CN(C)CCC=C1c2ccccc2C=Cc2ccccc21 [Cyclobenzaprine hydrochloride] | 579
CC(=O)[C@H]1CC[C@H]2[C@@H]3CC=C4C[C@@H](O)CC[C@]4(C)[C@H]3CC[C@]12C [Pregnenolone] | 924
Clc1ccc(CSC(Cn2ccnc2)c2ccc(Cl)cc2Cl)cc1 (stereo not drawn) [Sulconazole nitrate] | 372
Clc1ccc(C(OCCN2CCCCC2)c2ccccc2)cc1 (stereo not drawn) [Cloperastine hydrochloride] | 863

Same assay, conditions: normalized ORO level vs DMSO-treated cells; compound present during 7 days differentiation, 96-well; negative = decrease in lipid accumulation

Compound | Z-score
COc1ccc2c(c1)N(C[C@H](C)CN(C)C)c1ccccc1S2.O=C(O)/C=C\C(=O)O [Methotrimeprazine maleat salt] | 1.548
CC1(C)S[C@@H]2[C@H](NC(=O)Cc3ccccc3)C(=O)N2[C@H]1C(=O)O.CC1(C)S[C@@H]2[C@H](NC(=O)Cc3ccccc3)C(=O)N2[C@H]1C(=O)O.c1ccc(CNCCNCc2ccccc2)cc1 [Benzathine benzylpenicillin] | 0.238
Nc1cc(N2CCCCC2)nc(N)[n+]1[O-] [Minoxidil] | 0.06676
Alverine citrate salt | −0.9516
CNCCC(Oc1ccc(C(F)(F)F)cc1)c1ccccc1 (stereo not drawn) [Fluoxetine hydrochloride] | −1.0533
OCCN1CCN(CCCN2c3ccccc3Sc3ccc(Cl)cc32)CC1 [Perphenazine] | −1.5218
CC(Oc1ccccc1)C(=O)N[C@@H]1C(=O)N2[C@@H]1SC(C)(C)[C@@H]2C(=O)O (stereo partly drawn) [Phenethicillin potassium salt] | −0.0851
Cl.OC1CCCCC1N1CCC(c2ccccc2)CC1 (stereo not drawn) [L(−)-vesamicol hydrochloride] | −1.6146
O=c1[nH]c2ccccc2n1C1CCN(CCCC(c2ccc(F)cc2)c2ccc(F)cc2)CC1 [Pimozide] | −0.7483
CO[C@@]1(NC(=O)CSCC#N)C(=O)N2C(C(=O)O)=C(CSc3nnnn3C)CS[C@@H]21 [Cefmetazole sodium salt] | −0.8537
C[C@@H]1NC(=O)NC1=O [Methylhydantoin-5-(L)] | −0.97
CC(=O)OCC(=O)[C@@]1(O)[C@H](C)C[C@H]2[C@@H]3CCC4=CC(=O)C=C[C@]4(C)[C@@]3(F)[C@@H](O)C[C@@]21C [Dexamethasone acetate] | −1.3076
COC1=CC(=O)C[C@@H](C)[C@]12Oc1c(Cl)c(OC)cc(OC)c1C2=O [Griseofulvin] | 0.2728
Cc1nc2n(c(=O)c1CCN1CCC(c3noc4cc(F)ccc34)CC1)CCCC2 [Risperidone] | −0.0533
C[C@@H](O)[C@H]1C(=O)N2C(C(=O)O)=C(SCCN=CN)C[C@H]12 [Imipenem] | −0.7436
CN(C)CCC=C1c2ccccc2C=Cc2ccccc21 [Cyclobenzaprine hydrochloride] | −0.1421
COc1ccc2c(c1)[C@]13CCCC[C@@H]1[C@H](C2)N(C)CC3 | −0.8776
CC(C(=O)O)c1ccc(C(=O)c2ccccc2)s1 (stereo not drawn) [Tiaprofenic acid] | −0.6271
NC(=O)CN1CCCC1=O [Piracetam] | 0.8038
CC(C(=O)O)c1ccc(N2Cc3ccccc3C2=O)cc1 (stereo not drawn) [Indoprofen] | −1.4204
CC(Cc1ccc(O)cc1)NCC(O)c1cc(O)cc(O)c1 (stereo not drawn) [Fenoterol hydrobromide] | −0.7445
O=C(O)CCC(=O)Nc1ccc(S(=O)(=O)Nc2nccs2)cc1 [Succinylsulfathiazole] | 1.139
O=C(NCC(O)CO)c1c(I)c(C(=O)NCC(O)CO)c(I)c(N(CCO)C(=O)CO)c1I (stereo not drawn) [Ioversol] | 0.08392
COCCc1ccc(OCC(O)CNC(C)C)cc1.COCCc1ccc(OCC(O)CNC(C)C)cc1.O=C(O)C(O)C(O)C(=O)O (racemic) [Metoprolol-(+,−) (+)-tartrate salt] | −0.4304
C=CCN1CC[C@]23c4c5ccc(O)c4O[C@H]2C(=O)CC[C@@]3(O)[C@H]1C5 [Naloxone hydrochloride] | −0.3899
Iobenguane sulfate | −0.2715

Compound | Z-score
CCC1(C)CC(=O)NC1=O (stereo not drawn) [Ethosuximide] | 1.076
CC1COc2c(N3CCN(C)CC3)c(F)cc3c(=O)c(C(=O)O)cn1c23 (stereo not drawn) [Ofloxacin] | 0.7623
CN1CCc2cc3c(cc2[C@H]1[C@@H]1OC(=O)c2c1ccc1c2OCO1)OCO3 [Bicuculline (+)] | −0.5556
Cc1c(NC(C)C)c(=O)n(-c2ccccc2)n1C.Cl [Isopyrin hydrochloride] | 0.0325
CN1[C@@H]2CC[C@H]1C[C@@H](O)C2 [Tropine] | −0.2952
CC(=O)OCC(=O)[C@@]1(O)CC[C@H]2[C@@H]3CCC4=CC(=O)C=C[C@]4(C)[C@@]3(F)[C@@H](O)C[C@@]21C [Isoflupredone acetate] | 1.55
CN(C)Cc1c[nH]c2ccccc12 [Gramine] | 1.618
CCC(=O)OCC(=O)[C@@]1(OC(=O)CC)[C@@H](C)C[C@H]2[C@@H]3CCC4=CC(=O)C=C[C@]4(C)[C@@]3(Cl)[C@@H](O)C[C@@]21C [Beclomethasone dipropionate] | −0.2791
Nc1c2c(nc3ccccc13)CCCC2 [Tacrine hydrochloride hydrate] | −2.143
COc1cc(C(=O)OC2CC3CCC(C2)N3C)ccc1O (stereo not drawn) [Fillalbin] | 0.7621
CC[C@]12CCCN3CCc4c(n(c5ccccc45)[C@](O)(C(=O)OC)C1)[C@@H]32 [Epivincamine] | 0.1161
O.O=C(O)[C@@H]1[C@H]2C[C@H]3c4[nH]c5ccccc5c4CCN3C[C@@H]2CC[C@@H]1O [Yohimbinic acid monohydrate] | −0.0239
CC(NC(C)(C)C)C(=O)c1cccc(Cl)c1 (stereo not drawn) [Bupropion hydrochloride] | 0.7193
Cc1cccc(Nc2ccccc2C(=O)O)c1C [Mefenamic acid] | −0.2407
CCn1nc(C(=O)O)c(=O)c2cc3c(cc21)OCO3 [Cinoxacin] | 0.8009
COc1cc2c3cc1Oc1cc(ccc1O)C[C@@H]1c4c(cc(OC)c(O)c4Oc4ccc(cc4)C[C@@H]3N(C)CC2)CC[N+]1(C)C.Cl.O.O.O.O.O.[Cl-] [Tubocurarine chloride pentahydrate (+)] | 0.8961
CC(C)(C)NCC(O)c1ccc(O)c(CO)c1 (stereo not drawn) [Salbutamol] | −0.9959
C1CCN2C[C@@H]3C[C@@H](CN4CCCC[C@@H]34)[C@H]2C1 [Sparteine (−)] | −0.3524
Cc1c(N(C)CS(=O)(=O)[O-])c(=O)n(-c2ccccc2)n1C.[Na+] [Dipyrone] | 1.061
Bromocryptine mesylate | −0.775
C=C1[C@H]2C[C@@]3([C@@H]1O)[C@@H](C[C@@H]2O)[C@]12[C@@H]4C[C@H]3[C@H]1N(CC)C[C@]4(C)CC[C@@H]2O [Napelline] | −1.869
COC(=O)C1=CO[C@@H](C)[C@H]2CN3CCc4c([nH]c5ccccc45)[C@@H]3C[C@H]12.Cl [Ajmalicine hydrochloride] | −0.8989
Cn1cc[nH]c1=S [Methimazole] | 0.6934
Helveticoside | −0.1112
CC(=O)[C@H]1CC[C@H]2[C@@H]3CC=C4C[C@@H](O)CC[C@]4(C)[C@H]3CC[C@]12C [Pregnenolone] | 1.076
Cc1cc(=O)oc2cc(O)ccc12 [Hymecromone] | −0.7731

Compound | Z-score
Cc1ccc(Cl)c(Nc2ccccc2C(=O)O)c1Cl | −1.2044
CN(C)CCN(Cc1ccc(Cl)cc1)c1ccccn1 [Chloropyramine hydrochloride] | 0.124
Clc1ccc(CSC(Cn2ccnc2)c2ccc(Cl)cc2Cl)cc1 (stereo not drawn) [Sulconazole nitrate] | −0.6576
Nc1[nH]c(=O)ncc1F [Flucytosine] | −0.8908
CC(CCc1ccccc1)NCC(O)c1ccc(O)c(C(N)=O)c1 (stereo not drawn) [Labetalol hydrochloride] | −1.5017
CCN1CCN(C(=O)N[C@@H](C(=O)N[C@@H]2C(=O)N3[C@@H]2SC(C)(C)[C@@H]3C(=O)O)c2ccccc2)C(=O)C1=O [Piperacillin sodium salt] | −0.9149
O=C1NCC2(CCN(CCc3ccccc3)CC2)O1 [Fenspiride hydrochloride] | 0.2827
CN1C(=O)OC(C)(C)C1=O [Trimethadione] | −0.8958
Cc1cccc(C)c1NC(=O)CN1CCN(CCCC(c2ccc(F)cc2)c2ccc(F)cc2)CC1 [Lidoflazine] | 1.42
Clc1ccc(C(OCCN2CCCCC2)c2ccccc2)cc1 (stereo not drawn) [Cloperastine hydrochloride] | 0.7661
CN(C)CC/C=C1\c2ccccc2CSc2ccccc21 [Dosulepin hydrochloride] | 0.00689
CC(NCCc1ccc(O)cc1)C(O)c1ccc(O)cc1 (stereo not drawn) [Ritodrine hydrochloride] | 0.3787
O=C(CCNNC(=O)c1ccncc1)NCc1ccccc1 [Nialamide] | 0.6794
CN[C@@H]1[C@@H](O[C@H]2O[C@H](CO)[C@@H](N)[C@H](O)[C@H]2O)OC2C[C@@H](N)[C@@H](O[C@H]3[C@H](O)[C@@H](O)[C@H](N)C[C@@H]3N)OC2[C@@H]1O (stereo partly drawn) [Apramycin] | −1.1349
Timolol maleate salt | 0.4592
CC1(C)S[C@@H]2[C@H](NC(=O)C3(N)CCCCC3)C(=O)N2[C@H]1C(=O)O [Cyclacillin] | 2.402
CC(C(=O)O)c1ccc(-c2ccccc2)c(F)c1 (stereo not drawn) [Flurbiprofen] | −1.4
CC(C)(C)NCC(O)c1cc(Cl)c(N)c(Cl)c1 (stereo not drawn) [Clenbuterol hydrochloride] | 0.2391
O=c1c(O)c(-c2cc(O)c(O)c(O)c2)oc2cc(O)cc(O)c12 [Myricetin] | 27.33
NCCc1c[nH]c2ccc(O)cc12 [Serotonin hydrochloride] | −0.8664
CCN(CC)CCOC(=O)C1(c2ccc([N+](=O)[O-])cc2)CCCC1.Cl [Nitrocaramiphen hydrochloride] | −1.1255
CC(=O)c1ccc2c(c1)N(CCCN1CCC(CCO)CC1)c1ccccc1S2 [Piperacetazine] | −0.4798
c1ccc(CNc2ncnc3[nH]cnc23)cc1 [Aminopurine, 6-benzyl] | −0.7385
CCOC(=O)c1ccc(OC(=O)CCCCCN=C(N)N)cc1.CS(=O)(=O)O [Gabexate mesilate] | −1.4041
CC(C)(CO)[C@@H](O)C(=O)NCCCO [Panthenol (D)] | −0.069
Nc1c(Br)cc(Br)cc1CN[C@H]1CC[C@H](O)CC1 [Ambroxol hydrochloride] | −0.9433
